In US20170056351A1, “COMPOSITION FOR INDUCING TUMOR IMMUNITY” (UNIVERSITY OF OCCUPATIONAL AND ENVIRONMENTAL HEALTH, JAPAN, priority 2014, published 2017):

System: U251 cells
Assay: Cellular ROS levels after ionizing irradiation (DCFD, flow cytometry), U251
Format: cell-based, human
Details: for relative MFI of DCF fluorescence 12 hours after ionizing irradiation, timing study: 10 Gy
Protocol: Intracellular ROS production was evaluated using the oxidant-sensitive fluorescence probe DCFD and flow cytometry (Yamamori T, Yasui H, Yamazumi M, et al: Ionizing radiation induces mitochondrial reactive oxygen species production accompanied by upregulation of mitochondrial electron transport chain function and mitochondrial content under control of the cell cycle checkpoint. Free Radic Biol Med 53: 260-270, 2012.). The cells were seeded on a 100-mm culture dish, and using an X-ray irradiation apparatus (MBR-1520R; Hitachi, Tokyo, Japan) (0.67 Gy/min), the cells were then irradiated with a radiation of 10 Gy in a dark room. During the ionizing irradiation, the culture dish was maintained at a room temperature in a dark container. In the case of a 5-ALA and ionizing irradiation group (RT,12 h+ALA), the cells were treated with 1 mM 5-ALA for 4 hours, then, immediately after the treatment, the cells were irradiated with ionizing radiation, and were then incubated together with 10 μM DCFD at 37° C. for 15 minutes, followed by washing with PBS twice. Thereafter, as described above, the cells were analyzed using a flow cytometer (excitation: 488 nm; radiation: 525/50 nm band-pass filter). Control cells were not exposed to ionizing radiation or 5-ALA. In a 5-ALA group, the cells were treated with 1 mM 5-ALA for 4 hours, but were not exposed to ionizing radiation. The control cells and the cells of the 5-ALA group were treated with DCFD in the same manner as described above. In order to prevent the photoactivation of 5-ALA-induced PpIX and DCFD, all procedures were carried out in a dark room. The flow cytometric data were analyzed using FlowJo (Tree Star Inc., Ashland, Oreg., USA). The MFI of the DCF fluorescence in the cells, with respect to that in control cells, was calculated for each cell line.
The cells were seeded on a 100-mm culture dish, and were then exposed to an ionizing radiation of 10 Gy. The incubation time (4 h) of 1 mM 5-ALA was the same among individual groups, and three types of 5-ALA treatment times were initiated: i) 5-ALA treatment immediately before ionizing irradiation [RT+ALA (pre) group]; ii) 5-ALA treatment immediately after ionizing irradiation [RT+ALA (4 h) group]; and iii) 5-ALA treatment 8 hours after ionizing irradiation [RT+ALA (12 h) group]. In each group, twelve hours after the ionizing irradiation, the cells were incubated together with 10 μM DCFD at 37° C. for 15 minutes, and were then washed with PBS twice. Immediately after the washing, as described above, DCF fluorescence was analyzed using a flow cytometer. Control cells were not treated with ionizing radiation or 5-ALA. In a group involving only ionizing irradiation (RT), the cells were exposed to ionizing radiation, without performing 5-ALA treatments, and were then treated with DCFD twelve hours after the exposure to the ionizing radiation in the same manner as described above. All procedures were carried out in a dark room. The flow cytometric data were analyzed using FlowJo software. The MFI of the DCF fluorescence in the cells, with respect to that in control cells, was calculated for each cell line.

NCC(=O)CCC(=O)O [ALA, 5-aminolevulinic acid]
relative MFI of DCF fluorescence (cellular ROS) (1 mM 5-ALA 4 hours, without ionizing irradiation, relative to control cells, average±SE): 0.87±0.06 | relative MFI of DCF fluorescence 12 hours after ionizing irradiation, timing study (5-ALA treatment 8 hours after ionizing irradiation, RT+ALA (12 h) group): 1.38±0.05 | relative MFI of DCF fluorescence 12 hours after ionizing irradiation, timing study (5-ALA treatment immediately after ionizing irradiation, RT+ALA (4 h) group): 1.43±0.02 | relative MFI of DCF fluorescence 12 hours after ionizing irradiation, timing study (5-ALA treatment immediately before ionizing irradiation, RT+ALA (pre) group): 1.44±0.02 | relative MFI of DCF fluorescence (cellular ROS) (12 hours after 10 Gy ionizing irradiation with 5-ALA pre-treatment (1 mM, 4 hours), p=0.031 vs RT 12 h): 1.51±0.10
